Laboratory results as given in US9085555B2, “Complement pathway modulators and uses thereof” (priority 2011, dated 2015).
Structures can show the parent of a compound that is named as a salt.

target: Factor D (Homo sapiens (Human), UniProt P00746); assay: biochemical; type: biochemical; conditions: read-out: IC50
Sequence (P00746 26-253): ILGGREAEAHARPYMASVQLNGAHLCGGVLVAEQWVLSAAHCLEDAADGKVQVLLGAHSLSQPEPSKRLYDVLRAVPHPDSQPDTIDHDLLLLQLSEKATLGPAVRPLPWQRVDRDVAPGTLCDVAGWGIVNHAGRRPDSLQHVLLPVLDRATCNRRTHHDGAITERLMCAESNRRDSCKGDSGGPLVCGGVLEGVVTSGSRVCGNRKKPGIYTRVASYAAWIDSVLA

Question: How did the IC50 turn out when Cc1cc2c(C(N)=O)nn(CC(=O)N3[C@@H]4C[C@@H]4C[C@H]3C(=O)NCc3cccc(Cl)c3F)c2cn1 [Example 651, 1-{2-[(1R,3S,5R)-3-(3-Chloro-2-fluoro-benzylcarbamoyl)-2-aza-bicyclo[3.1.0]hex-2-yl]-2-oxo-ethyl}-5-methyl-1H-pyrazolo[3,4-c]pyridine-3-carboxylic acid amide] was run?
Answer: The IC50 was 21 nM.

Question: How did the IC50 turn out when O=C(CO)c1nn(CC(=O)N2[C@@H]3C[C@@H]3C[C@H]2C(=O)NCc2cccc(Cl)c2F)c2ccccc12 [Example 652, (1R,3S,5R)-2-{2-[3-(2-Hydroxy-acetyl)-indazol-1-yl]-acetyl}-2-aza-bicyclo [3.1.0]hexane-3-carboxylic acid 3-chloro-2-fluoro-benzylamide] was run?
Answer: Its IC50 is 19 nM.

Question: Cc1cc2c(cn1)c(C(N)=O)nn2CC(=O)N1[C@@H]2C[C@@H]2C[C@H]1C(=O)NCc1cccc(Cl)c1F [Example 653, 1-{2-[(1R,3S,5R)-3-(3-Chloro-2-fluoro-benzylcarbamoyl)-2-aza-bicyclo[3.1.0]hex-2-yl]-2-oxo-ethyl}-6-methyl-1H-pyrazolo[4,3-c]pyridine-3-carboxylic acid amide] was tested. Which IC50 did it give?
Answer: Its IC50 is 47 nM.

Question: With NC(=O)c1nn(CC(=O)N2[C@@H]3C[C@@H]3C[C@H]2C(=O)NCc2cccc(Cl)c2F)c2ncccc12 [Example 654, 1-{2-[(1R,3S,5R)-3-(3-Chloro-2-fluoro-benzylcarbamoyl)-2-aza-bicyclo[3.1.0]hex-2-yl]-2-oxo-ethyl}-1H-pyrazolo[3,4-b]pyridine-3-carboxylic acid amide] as the compound, how does the IC50 read?
Answer: Its IC50 is 18 nM.

Question: With CC(=O)c1cn(CC(=O)N2[C@@H]3C[C@@H]3C[C@H]2C(=O)NCc2cccc(Cl)c2F)c2nnccc12 [Example 655, (1R,3S,5R)-2-[2-(5-Acetyl-pyrrolo[2,3-c]pyridazin-7-yl)-acetyl]-2-aza-bicyclo [3.1.0]hexane-3-carboxylic acid 3-chloro-2-fluoro-benzylamide] as the compound, how does the IC50 read?
Answer: Its IC50 is 91 nM.

Question: For NC(=O)c1nn(CC(=O)N2CCCC[C@H]2C(=O)NCc2cccc(Cl)c2F)c2cnccc12 [Example 656, 1-{2-[(S)-2-(3-Chloro-2-fluoro-benzylcarbamoyl)-piperidin-1-yl]-2-oxo-ethyl}-1H-pyrazolo[3,4-c]pyridine-3-carboxylic acid amide], which IC50 is on record?
Answer: The IC50 was 358 nM.

Question: NC(=O)c1nn(CC(=O)N2CCS[C@H]2C(=O)NCc2cccc(Cl)c2F)c2cnccc12 [Example 657, 1-{2-[(S)-2-(3-Chloro-2-fluoro-benzylcarbamoyl)-thiazolidin-3-yl]-2-oxo-ethyl}-1H-pyrazolo[3,4-c]pyridine-3-carboxylic acid amide] was tested. Which IC50 did it give?
Answer: The IC50 was 78 nM.

Question: CO[C@H]1[C@@H](C(=O)NCc2cccc(Cl)c2F)N(C(=O)Cn2cc(C(C)=O)c3cc(C)ncc32)C[C@@H]1F [Example 658, (2S,3S,4S)-1-[2-(3-Acetyl-5-methyl-pyrrolo[2,3-c]pyridin-1-yl)-acetyl]-4-fluoro-3-methoxy-pyrrolidine-2-carboxylic acid 3-chloro-2-fluoro-benzylamide formate] was tested. Which IC50 did it give?
Answer: The IC50 was 24 nM.

Question: Which IC50 does the source give for CO[C@H]1[C@@H](C(=O)NC2(c3cccc(Cl)c3F)CC2)N(C(=O)Cn2nc(C(N)=O)c3cccnc32)C[C@@H]1F [Example 659, 1-(2-{(2S,3S,4S)-2-[1-(3-Chloro-2-fluoro-phenyl)-cyclopropylcarbamoyl]-4-fluoro-3-methoxy-pyrrolidin-1-yl}-2-oxo-ethyl)-1H-pyrazolo[3,4-b]pyridine-3-carboxylic acid amide] here?
Answer: Its IC50 is 25 nM.

Question: Which IC50 does the source give for CO[C@H]1[C@@H](C(=O)NC2(c3cccc(Cl)c3F)CC2)N(C(=O)Cn2nc(C(N)=O)c3cnccc32)C[C@@H]1F [Example 660, 1-(2-{(2S,3S,4S)-2-[1-(3-Chloro-2-fluoro-phenyl)-cyclopropylcarbamoyl]-4-fluoro-3-methoxy-pyrrolidin-1-yl}-2-oxo-ethyl)-1H-pyrazolo[4,3-c]pyridine-3-carboxylic acid amide] here?
Answer: Its IC50 is 16 nM.
